Reference: patent US9328122B2, “7-substituted Hanfangichin B derivative, and preparation method and use thereof” (HANGZHOU BENSHENG PHARMACEUTICAL CO., LTD., priority 2012, dated 2016)
Values after ≈ are worked out from the molar mass of the structure shown.

Tests used:
[1] = test system: K562/ADR (K562adr, drug-resistant chronic myeloid leukemia) cells; assay: MTT cell growth inhibition, leukemia cells; format: cell-based; settings: Homo sapiens, K562/ADR, 72 h, MTT
From the text: (§1) Leukemia cell lines: leukemia cell lines: K562adr (drug-resistant, chronic myeloid leukemia, CML), NB4 (acute promyelocytic leukemia, AML), Kasumi-1 (acute myeloid leukemia M2 type, AML-M2), Jurkat (acute lymphoblastic leukemia, ALL), all of which were donated by Cancer Research Institute of Zhejiang University, China; and H9 (acute lymphoblastic leukemia, ALL), which was purchased from China Center for Type Culture Collection.
(§2) Reagents: The standard sample of fangchinoline (FAN) was purchased from Ci Yuan Biotechnology Co., Ltd., Shaanxi, China; and the 7-substituted fangchinoline derivatives according to the present invention.
(§3) 6000 well-growing leukemia cells were obtained and inoculated into wells of a 96-well cell culture plate. The culture medium was a RPMI-1640 cell culture medium containing 10% fetal bovine serum. After adding the 7-substituted fangchinoline derivatives of different concentrations the next day and mixing uniformly, the plate was placed in a carbon dioxide cell incubator (5% CO2) at 37° C. and incubating for 72 hours. Then the viable cell concentration was determined by the MTT method.

[2] = test system: NB4 (acute promyelocytic leukemia) cells; assay: MTT cell growth inhibition, leukemia cells; format: cell-based; settings: Homo sapiens, NB4, 72 h, MTT
From the text: as §1, §2, §3

[3] = test system: RPMI 8226 (multiple myeloma) cells; assay: MTT cell growth inhibition, multiple myeloma cells; format: cell-based, human; settings: Homo sapiens, RPMI 8226, 72 h, MTT
Method: Myeloma cell lines: RPMI8226 (multiple myeloma), purchased from Fuxiang Bio-tech Co. Ltd., Shanghai, China.
as §3, with “well-growing” for “well-growing leukemia”, “incubated” for “incubating”

[4] = test system: CNE (nasopharyngeal carcinoma) cells; assay: MTT cell growth inhibition, solid tumor cells; format: cell-based, human; settings: Homo sapiens, CNE, 72 h, MTT
From the text: (§4) Hep-2 (laryngeal carcinoma), A549 (human lung cancer), CaES-17 (esophageal cancer cell), PC-3 (prostate cancer), CNE (nasopharyngeal carcinoma cell) and SK-OV-3 (ovarian cancer cell), all of which were purchased from China Center For Type Culture Collection; RKO (human colon adenocarcinoma cell), MGC-803 (human gastric cancer cell), MG-63 (osteosarcoma), and U87-MG (malignant glioma cell), all of which were purchased from Fuxiang Bio-tech Co. Ltd., Shanghai, China; PANC-1 (pancreatic cancer), Becap37 (human breast cancer cell), Hela (human cervical cancer cell) and Hep G2 (human liver cancer cell), all of which were donated by Cancer Research Institute of Zhejiang University, China.
as §3, with “human solid tumor” for “leukemia”, “DMEM High Glucose” for “a RPMI-1640”, “serum. The plate was placed in a carbon dioxide cell incubator (5% CO2) at 37° C. and incubated for 24 hours.” for “serum.”, “added with” for “adding the”, “concentration” for “concentrations the next day”, “incubated” for “incubating”

[5] = test system: CaEs-17 (esophageal cancer) cells; assay: MTT cell growth inhibition, solid tumor cells; format: cell-based, human; settings: Homo sapiens, CaEs17, CaEs-17, 72 h, MTT
From the text: as §4
as §3, with “human solid tumor” for “leukemia”, “DMEM High Glucose” for “a RPMI-1640”, “serum. The plate was placed in a carbon dioxide cell incubator (5% CO2) at 37° C. and incubated for 24 hours.” for “serum.”, “added with” for “adding the”, “concentration” for “concentrations the next day”, “incubated” for “incubating”

[6] = test system: PANC-1 (pancreatic cancer) cells; assay: MTT cell growth inhibition, solid tumor cells; format: cell-based, human; settings: Homo sapiens, PANC-1, 72 h, MTT
From the text: as §4
as §3, with “human solid tumor” for “leukemia”, “DMEM High Glucose” for “a RPMI-1640”, “serum. The plate was placed in a carbon dioxide cell incubator (5% CO2) at 37° C. and incubated for 24 hours.” for “serum.”, “added with” for “adding the”, “concentration” for “concentrations the next day”, “incubated” for “incubating”

[7] = test system: PC-3 (prostate cancer) cells; assay: MTT cell growth inhibition, solid tumor cells; format: cell-based, human; settings: Homo sapiens, PC-3, 72 h, MTT
From the text: as §4
as §3, with “human solid tumor” for “leukemia”, “DMEM High Glucose” for “a RPMI-1640”, “serum. The plate was placed in a carbon dioxide cell incubator (5% CO2) at 37° C. and incubated for 24 hours.” for “serum.”, “added with” for “adding the”, “concentration” for “concentrations the next day”, “incubated” for “incubating”

[8] = test system: SK-OV-3 (ovarian cancer) cells; assay: MTT cell growth inhibition, solid tumor cells; format: cell-based, human; settings: Homo sapiens, SK-OV-3, 72 h, MTT
From the text: as §4
as §3, with “human solid tumor” for “leukemia”, “DMEM High Glucose” for “a RPMI-1640”, “serum. The plate was placed in a carbon dioxide cell incubator (5% CO2) at 37° C. and incubated for 24 hours.” for “serum.”, “added with” for “adding the”, “concentration” for “concentrations the next day”, “incubated” for “incubating”

[9] = test system: A549 (human lung cancer) cells; assay: MTT cell growth inhibition, solid tumor cells; format: cell-based; settings: Homo sapiens, A549, 72 h, MTT
From the text: as §4
as §3, with “human solid tumor” for “leukemia”, “DMEM High Glucose” for “a RPMI-1640”, “serum. The plate was placed in a carbon dioxide cell incubator (5% CO2) at 37° C. and incubated for 24 hours.” for “serum.”, “added with” for “adding the”, “concentration” for “concentrations the next day”, “incubated” for “incubating”

[10] = test system: Becap-37 (human breast cancer) cells; assay: MTT cell growth inhibition, solid tumor cells; format: cell-based; settings: Homo sapiens, Becap-37, 72 h, MTT
From the text: as §4
as §3, with “human solid tumor” for “leukemia”, “DMEM High Glucose” for “a RPMI-1640”, “serum. The plate was placed in a carbon dioxide cell incubator (5% CO2) at 37° C. and incubated for 24 hours.” for “serum.”, “added with” for “adding the”, “concentration” for “concentrations the next day”, “incubated” for “incubating”

[11] = test system: Hela (human cervical cancer) cells; assay: MTT cell growth inhibition, solid tumor cells; format: cell-based; settings: Homo sapiens, Hela, 72 h, MTT
From the text: as §4
as §3, with “human solid tumor” for “leukemia”, “DMEM High Glucose” for “a RPMI-1640”, “serum. The plate was placed in a carbon dioxide cell incubator (5% CO2) at 37° C. and incubated for 24 hours.” for “serum.”, “added with” for “adding the”, “concentration” for “concentrations the next day”, “incubated” for “incubating”

[12] = test system: Hep G2 (human liver cancer) cells; assay: MTT cell growth inhibition, solid tumor cells; format: cell-based; settings: Homo sapiens, HepG2, Hep G2, 72 h, MTT
From the text: as §4
as §3, with “human solid tumor” for “leukemia”, “DMEM High Glucose” for “a RPMI-1640”, “serum. The plate was placed in a carbon dioxide cell incubator (5% CO2) at 37° C. and incubated for 24 hours.” for “serum.”, “added with” for “adding the”, “concentration” for “concentrations the next day”, “incubated” for “incubating”

[13] = test system: Hep-2 (laryngeal carcinoma) cells; assay: MTT cell growth inhibition, solid tumor cells; format: cell-based; settings: Homo sapiens, Hep-2, 72 h, MTT
From the text: as §4
as §3, with “human solid tumor” for “leukemia”, “DMEM High Glucose” for “a RPMI-1640”, “serum. The plate was placed in a carbon dioxide cell incubator (5% CO2) at 37° C. and incubated for 24 hours.” for “serum.”, “added with” for “adding the”, “concentration” for “concentrations the next day”, “incubated” for “incubating”

[14] = test system: MG-63 (osteosarcoma) cells; assay: MTT cell growth inhibition, solid tumor cells; format: cell-based; settings: Homo sapiens, MG-63, 72 h, MTT
From the text: as §4
as §3, with “human solid tumor” for “leukemia”, “DMEM High Glucose” for “a RPMI-1640”, “serum. The plate was placed in a carbon dioxide cell incubator (5% CO2) at 37° C. and incubated for 24 hours.” for “serum.”, “added with” for “adding the”, “concentration” for “concentrations the next day”, “incubated” for “incubating”

[15] = test system: MGC-803 (human gastric cancer) cells; assay: MTT cell growth inhibition, solid tumor cells; format: cell-based; settings: MGC-803, 72 h, MTT
From the text: as §4
as §3, with “human solid tumor” for “leukemia”, “DMEM High Glucose” for “a RPMI-1640”, “serum. The plate was placed in a carbon dioxide cell incubator (5% CO2) at 37° C. and incubated for 24 hours.” for “serum.”, “added with” for “adding the”, “concentration” for “concentrations the next day”, “incubated” for “incubating”

[16] = test system: RKO (human colon adenocarcinoma) cells; assay: MTT cell growth inhibition, solid tumor cells; format: cell-based; settings: Homo sapiens, RKO, 72 h, MTT
From the text: as §4
as §3, with “human solid tumor” for “leukemia”, “DMEM High Glucose” for “a RPMI-1640”, “serum. The plate was placed in a carbon dioxide cell incubator (5% CO2) at 37° C. and incubated for 24 hours.” for “serum.”, “added with” for “adding the”, “concentration” for “concentrations the next day”, “incubated” for “incubating”

[17] = test system: U87-MG (malignant glioma) cells; assay: MTT cell growth inhibition, solid tumor cells; format: cell-based; settings: Homo sapiens, U-87 MG, U87-MG, 72 h, MTT
From the text: as §4
as §3, with “human solid tumor” for “leukemia”, “DMEM High Glucose” for “a RPMI-1640”, “serum. The plate was placed in a carbon dioxide cell incubator (5% CO2) at 37° C. and incubated for 24 hours.” for “serum.”, “added with” for “adding the”, “concentration” for “concentrations the next day”, “incubated” for “incubating”

tumor = assay: Antitumor activity compared with fangchinoline, overall statement; format: cell-based; settings: tumor type not specified

Structure (SMILES): C=CCOc1c(OC)cc2c3c1Oc1cc4c(cc1OC)CCN(C)[C@H]4Cc1ccc(cc1)Oc1cc(ccc1OC)C[C@@H]3N(C)CC2 [BS-FC-213]
- IC50 ([1]; read-out: IC50): 0.38 µg/mL (≈ 0.586 µM)
- IC90 ([1]; read-out: IC90): 1.72 µg/mL (≈ 2.65 µM)
- IC50 ([2]; read-out: IC50): 0.66 µg/mL (≈ 1.02 µM)
- IC90 ([2]; read-out: IC90): 2.32 µg/mL (≈ 3.58 µM)
- IC50 ([3]; read-out: IC50): 0.12 µg/mL (≈ 0.185 µM)
- IC90 ([3]; read-out: IC90): 0.5 µg/mL (≈ 0.771 µM)
- IC50 ([4]; read-out: IC50): 2.7 µg/mL (≈ 4.16 µM)
- IC90 ([4]; read-out: IC90): 5.6 µg/mL (≈ 8.63 µM)
- IC50 ([5]; read-out: IC50): 1.68 µg/mL (≈ 2.59 µM)
- IC90 ([5]; read-out: IC90): 9.16 µg/mL (≈ 14.1 µM)
- IC50 ([6]; read-out: IC50): 3.46 µg/mL (≈ 5.33 µM)
- IC90 ([6]; read-out: IC90): 10.4 µg/mL (≈ 16 µM)
- IC50 ([7]; read-out: IC50): 3.24 µg/mL (≈ 4.99 µM)
- IC90 ([7]; read-out: IC90): 7.37 µg/mL (≈ 11.4 µM)
- IC50 ([8]; read-out: IC50): 5 µg/mL (≈ 7.71 µM)
- IC90 ([8]; read-out: IC90): 11.8 µg/mL (≈ 18.2 µM)
- IC50 ([9]; read-out: IC50): 2.19 µg/mL (≈ 3.38 µM)
- IC90 ([9]; read-out: IC90): 4.92 µg/mL (≈ 7.58 µM)
- IC50 ([10]; read-out: IC50): 2.54 µg/mL (≈ 3.91 µM)
- IC90 ([10]; read-out: IC90): 5.29 µg/mL (≈ 8.15 µM)
- IC50 ([11]; read-out: IC50): 1.68 µg/mL (≈ 2.59 µM)
- IC90 ([11]; read-out: IC90): 3.89 µg/mL (≈ 6 µM)
- IC50 ([12]; read-out: IC50): 2.12 µg/mL (≈ 3.27 µM)
- IC90 ([12]; read-out: IC90): 5.92 µg/mL (≈ 9.12 µM)
- IC50 ([13]; read-out: IC50): 3.63 µg/mL (≈ 5.59 µM)
- IC90 ([13]; read-out: IC90): 9.9 µg/mL (≈ 15.3 µM)
- IC50 ([14]; read-out: IC50): 2.4 µg/mL (≈ 3.7 µM)
- IC90 ([14]; read-out: IC90): 3.8 µg/mL (≈ 5.86 µM)
- IC50 ([15]; read-out: IC50): 1.49 µg/mL (≈ 2.3 µM)
- IC90 ([15]; read-out: IC90): 6.02 µg/mL (≈ 9.28 µM)
- IC50 ([16]; read-out: IC50): 1.58 µg/mL (≈ 2.44 µM)
- IC90 ([16]; read-out: IC90): 3.46 µg/mL (≈ 5.33 µM)
- IC50 ([17]; read-out: IC50): 1.85 µg/mL (≈ 2.85 µM)
- IC90 ([17]; read-out: IC90): 9.23 µg/mL (≈ 14.2 µM)
- antitumor activity compared with that of fangchinoline (tumor): significantly superior
